Source: patent publication US12668585B2, “Substituted pyrimidinyl-pyrazoles as CDK2 inhibitors” (BLUEPRINT MEDICINES CORPORATION, priority 2021, dated 2026)
Read-outs that look alike come from different tables or passages of the source.

How the values were obtained:
CDK2/Cyclin E = target: T1, CDK2/Cyclin E (Homo sapiens, UniProt P24941); assay: Biochemical CDK inhibition assay (Caliper mobility shift), CDK2/Cyclin E; details: read-out: CDK2/cyclin E1 IC50
T1 construct: purchased Eurofins 14-475
Procedure: (§1) Inhibitory effects of the compounds of the disclosure were measured in biochemical assays that measure the enzymatic phosphorylation activity of CDK enzyme in complex of Cyclin proteins phosphorylates 7.5 micromolar fluorescently labelled peptide substrate, 5-FAM-QSPKKG-CONH2, (FL-Peptide 18, Perkin Elmer, 760362) in the presence of adenosine-5′-triphosphate (ATP) and varying concentrations of the test compound in 100 mM 2-[4-(2-hydroxyethyl)piperazin-1-yl] ethanesulfonic acid (HEPES), pH 7.5, 10 mM MgCl2, 0.015% Brij-35, 1 mM dithiothreitol (DTT), 1.0% dimehylsulfoxide (DMSO). […] Reactions proceeded until between 10% to 20% total peptides were phosphorylated at room temperature (25° C.) and were terminated with 35 mM 2,2′,2″,2′″-(ethane-1,2-diyldinitrilo)tetraacetic acid (EDTA). Product was detected using the Caliper mobility shift detection method where the phosphorylated peptide (product) and substrate were electrophoretically separated and measured. Percent activity was plotted against log concentration of compound and points to generate an apparent IC50. The following CDK enzymes in complex with different cyclin proteins were used in these assays: • CDK1/Cyclin B1, GST-tag (BPS, 40454), 1.5 nM used in the assay • CDK2/Cyclin E (Eurofins, 14-475), 1.25 nM used in the assays
(§2) For inhibitory activity against CDK2/Cyclin E mutant, the following designations are used: ≤10 nM=A; >10-20 nM=B; >20-30 nM=C; >30-100 nM=D and >100=E. For inhibition CDK1/Cyclin B1, GST-tag: ≥500 nM=A; <100-500 nM=B; <100 nM=C.

CDK1/Cyclin B1, GST-tag = target: T2, CDK1/Cyclin B1, GST-tag (Homo sapiens, UniProt P06493); assay: Biochemical CDK inhibition assay (Caliper mobility shift), CDK1/Cyclin B1
T2 construct: GST; purchased BPS 40454
T2 sequence (P06493 whole entry): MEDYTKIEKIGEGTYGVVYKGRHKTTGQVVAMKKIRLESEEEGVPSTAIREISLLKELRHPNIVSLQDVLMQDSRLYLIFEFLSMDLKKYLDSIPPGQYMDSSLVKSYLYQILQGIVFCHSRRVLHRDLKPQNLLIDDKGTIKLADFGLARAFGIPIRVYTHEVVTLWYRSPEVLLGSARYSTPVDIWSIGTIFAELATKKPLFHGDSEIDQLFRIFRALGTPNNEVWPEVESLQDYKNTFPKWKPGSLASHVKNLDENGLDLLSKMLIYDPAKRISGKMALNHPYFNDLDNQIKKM
T2 sequence (P14635 whole entry partner): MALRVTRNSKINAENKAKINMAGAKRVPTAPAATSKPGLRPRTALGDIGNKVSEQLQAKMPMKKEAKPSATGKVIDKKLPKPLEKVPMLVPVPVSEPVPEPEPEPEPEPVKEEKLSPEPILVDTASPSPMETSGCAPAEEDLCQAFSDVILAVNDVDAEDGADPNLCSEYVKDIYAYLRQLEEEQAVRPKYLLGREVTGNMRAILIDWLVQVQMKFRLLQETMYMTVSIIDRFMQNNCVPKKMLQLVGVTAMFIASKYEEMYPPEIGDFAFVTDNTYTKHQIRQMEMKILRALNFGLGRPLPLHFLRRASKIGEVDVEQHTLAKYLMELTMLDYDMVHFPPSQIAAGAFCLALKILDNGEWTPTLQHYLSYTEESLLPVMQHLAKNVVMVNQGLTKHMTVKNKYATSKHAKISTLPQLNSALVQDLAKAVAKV
Procedure: as §1, §2

IC50 (CDK2/Cyclin E) | IC50 (CDK1/Cyclin B1, GST-tag) | Molecule | IC50 (CDK2/Cyclin E; apparent IC50, 1.25 nM enzyme, 1.0 mM ATP or ATP Km, 7.5 micromolar FL-Peptide 18, 25° C.) | IC50 (CDK1/Cyclin B1, GST-tag; apparent IC50, 1.5 nM enzyme, 1.0 mM ATP or ATP Km, 7.5 micromolar FL-Peptide 18, 25° C.)
≤ 10 nM | < 100 nM | C[C@H](n1cc(-c2nc(Nc3ccc(S(N)(=O)=O)cc3F)ncc2C(F)(F)F)cn1)C(C)(C)O (single isomer, unassigned) [Example 6, (S)-3-fluoro-4-((4-(1-(3-hydroxy-3-methylbutan-2-yl)-1H-pyrazol-4-yl)-5-(trifluoromethyl)pyrimidin-2-yl)amino)benzenesulfonamide or (R)-3-fluoro-4-((4-(1-(3-hydroxy-3-methylbutan-2-yl)-1H-pyrazol-4-yl)-5-(trifluoromethyl)pyrimidin-2-yl)amino)benzenesulfonamide] | – | –
≤ 10 nM | 100 to 500 nM | C[C@@H](n1cc(-c2nc(Nc3ccc(S(N)(=O)=O)cc3F)ncc2C(F)(F)F)cn1)C(C)(C)O (single isomer, unassigned) [Example 7, (R)-3-fluoro-4-((4-(1-(3-hydroxy-3-methylbutan-2-yl)-1H-pyrazol-4-yl)-5-(trifluoromethyl)pyrimidin-2-yl)amino)benzenesulfonamide or (S)-3-fluoro-4-((4-(1-(3-hydroxy-3-methylbutan-2-yl)-1H-pyrazol-4-yl)-5-(trifluoromethyl)pyrimidin-2-yl)amino)benzenesulfonamide] | – | –
≤ 10 nM | 100 to 500 nM | C[C@H](O)[C@H](C)n1cc(-c2nc(Nc3ccc(S(N)(=O)=O)cc3F)ncc2C(F)(F)F)cn1 (single isomer, unassigned) [Example 9] | – | –
≤ 10 nM | 100 to 500 nM | C[C@@H](O)[C@H](C)n1cc(-c2nc(Nc3ccc(S(N)(=O)=O)cc3F)ncc2C(F)(F)F)cn1 (single isomer, unassigned) [Example 13] | – | –
≤ 10 nM | 100 to 500 nM | C[C@H](O)[C@@H](C)n1cc(-c2nc(Nc3ccc(S(N)(=O)=O)cc3F)ncc2C(F)(F)F)cn1 (single isomer, unassigned) [Example 15] | – | –
≤ 10 nM | 100 to 500 nM | C[C@H]([C@@H](C)O)n1cc(-c2nc(Nc3ccc(S(N)(=O)=O)cc3F)ncc2C(F)(F)F)cn1 (single isomer, unassigned) [Example 25] | – | –

More lines, now with the values behind:

Molecule | IC50 (CDK2/Cyclin E) | IC50 (CDK1/Cyclin B1, GST-tag) | IC50 (CDK2/Cyclin E; apparent IC50, 1.25 nM enzyme, 1.0 mM ATP or ATP Km, 7.5 micromolar FL-Peptide 18, 25° C.) | IC50 (CDK1/Cyclin B1, GST-tag; apparent IC50, 1.5 nM enzyme, 1.0 mM ATP or ATP Km, 7.5 micromolar FL-Peptide 18, 25° C.)
3-fluoro-4-((4-(1-(2-hydroxyethyl)-1H-pyrazol-4-yl)-5-(trifluoromethyl)pyrimidin-2-yl)amino)benzenesulfonamide or 3-fluoro-4-((2-(1-(2-hydroxyethyl)-1H-pyrazol-4-yl)-5-(trifluoromethyl)pyrimidin-4-yl)amino)benzenesulfonamide [Example 33] | – | – | 10 to 20 nM | ≥ 500 nM
Cc1cc(S(N)(=O)=O)ccc1Nc1ncc(C(F)(F)F)c(-c2cnn(CC(C)(C)O)c2)n1 [Example 2, 4-((4-(1-(2-hydroxy-2-methylpropyl)-1H-pyrazol-4-yl)-5-(trifluoromethyl)pyrimidin-2-yl)amino)-3-methylbenzenesulfonamide] | ≤ 10 nM | 100 to 500 nM | – | –
CC(C)(O)Cn1cc(-c2nc(Nc3ccc(S(N)(=O)=O)cc3)ncc2Cl)cn1 [Example 3, 4-((5-chloro-4-(1-(2-hydroxy-2-methylpropyl)-1H-pyrazol-4-yl)pyrimidin-2-yl)amino)benzenesulfonamide] | ≤ 10 nM | < 100 nM | – | –
CC(C)(O)Cn1cc(-c2nc(Nc3ccc(S(N)(=O)=O)cc3)ncc2C(F)F)cn1 [Example 4, 4-((5-(difluoromethyl)-4-(1-(2-hydroxy-2-methylpropyl)-1H-pyrazol-4-yl)pyrimidin-2-yl)amino)benzenesulfonamide] | ≤ 10 nM | < 100 nM | – | –
CC(C)(O)Cn1cc(-c2nc(Nc3ccc(S(N)(=O)=O)cc3)ncc2C(F)(F)F)cn1 [Example 5, 4-((4-(1-(2-hydroxy-2-methylpropyl)-1H-pyrazol-4-yl)-5-(trifluoromethyl)pyrimidin-2-yl)amino)benzenesulfonamide] | ≤ 10 nM | < 100 nM | – | –
CC(C)(O)Cn1cc(-c2nc(Nc3ccc(S(N)(=O)=O)cc3)ncc2C#N)cn1 [Example 8, 4-((5-cyano-4-(1-(2-hydroxy-2-methylpropyl)-1H-pyrazol-4-yl)pyrimidin-2-yl)amino)benzenesulfonamide] | ≤ 10 nM | < 100 nM | – | –
